By MIC is commonly meant the smallest concentration in the dilution series that meets the test's criterion for growth inhibition.

≈ marks a conversion by molar mass, not a printed value. Read-outs that look alike come from different tables or passages of the source.

These results are taken from patent US20240300910A1, “NITROTHIAZOLE DERIVATIVE AND APPLICATION THEREOF” (CHENGDU BIOBEL BIOTECHNOLOGY CO., LTD., priority 2021, published 2024).

Experiment [1] relates to Clostridium difficile ATCC BBA1870. The experiment in a line: In vitro MIC, agar dilution, Clostridium difficile ATCC BBA1870. The class given is cell-based. Conditions: Clostridioides difficile, ATCCBBA1870, 48 h, read-out: MIC values, Clostridium difficile ATCC BBA1870.
The test system of experiment [2] is Clostridium difficile ATCC 700057. The experiment in a line: In vitro MIC, agar dilution, Clostridium difficile ATCC 700057. Conditions: Clostridioides difficile, read-out: MIC values, Clostridium difficile ATCC 700057. The class given is cell-based.
For experiment [3], the system named is Clostridium difficile ATCC 630. The experiment can be described thus: In vitro MIC, agar dilution, Clostridium difficile ATCC 630. Conditions: Clostridioides difficile, read-out: MIC values, Clostridium difficile ATCC 630. Format: cell-based.
For experiment [4], the system named is ATCC BAA-835. The experiment can be described thus: Selectivity on intestinal probiotics, MIC, agar dilution. Format: cell-based. Conditions: read-out: MIC value, ATCC BAA-835. The procedure:
(§1) ATCC19435, Lactobacillus rhamnosus ATCC7469, Lactobacillus bulgaricus ATCC11842, and the test was performed using Brucella agar medium. The strains frozen at −80° C. were seeded in solid agar medium. The medium was placed in a 37° C. incubator and anaerobically cultivated for 24-48 h. […] For compound I-3 of the present invention, a high concentration (100× test concentration) of working solution was prepared and used on the same day, and 100% DMSO was used as the solvent. As for the preparation of each agar plate for each diluted concentration, 20 μl of high concentration working solution was mixed with 2 ml of melted Brucella agar with supplements (45-55° C.), and then added to a 6-well plate for solidification. 1% DMSO was used as growth control. On the day of the experiment, an appropriate amount of single bacterial colony was selected and suspended in physiological saline. A turbidity meter was used to adjust the turbidity of the bacterial solution to OD600=0.2, and thus the density was about 1×10^8 CFU/ml. 2 μl of such bacterial solution was directly seeded on a solid dilution agar plate of each compound. […] Then, all of the test plates were subjected to anaerobic cultivation at 35±2° C. for 48 h.

In experiment [5] the test system is Bifidobacterium bifidum CGMCC NO.1.5091. The description is as above. The class given is cell-based. Particulars: read-out: MIC value, Bifidobacterium bifidum CGMCC NO.1.5091. The procedure:
as §1

Experiment [6] concerns Enterococcus faecalis ATCC19433. The description is as above. Format: cell-based. Particulars: read-out: MIC value, Enterococcus faecalis ATCC19433. How it is done: as §1
The subject of experiment [7] is Lactobacillus acidophilus ATCC4356. The description is as above. The class given is cell-based. Conditions: read-out: MIC value, Lactobacillus acidophilus ATCC4356. The procedure: as §1
The subject of experiment [8] is Lactobacillus bulgaricus ATCC11842. Described as above. The class given is cell-based. Particulars: read-out: MIC value, Lactobacillus bulgaricus ATCC11842. The procedure:
as §1

The test system of experiment [9] is Lactobacillus rhamnosus ATCC7469. The experiment is described as above. The class given is cell-based. Conditions: Lacticaseibacillus rhamnosus, read-out: MIC value, Lactobacillus rhamnosus ATCC7469. The procedure:
as §1

Experiment [10] deals with Lactococcus lactis subsp. ATCC19435. Described as above. The class given is cell-based. Conditions: read-out: MIC value, Lactococcus lactis subsp. ATCC19435. How it is done:
as §1

The subject of experiment [11] is Clostridium difficile spores (ATCC 630 strain). The experiment in a line: Treatment of Clostridium difficile infection in golden hamsters. The class given is in vivo. Conditions: golden hamsters challenged with C. difficile spores; for survival / mortality after drug withdrawal, observed until the 45th day: twice a day for 20 days (I-3 100 mg/kg, vancomycin 10 mg/kg, fidaxomicin 10 mg/kg, nitazoxanide 100 mg/kg); for time after drug withdrawal at which deaths occurred / began: drugs removed from the 21st day. The procedure:
60 of 5-week-old male golden hamsters, weighing 70-90 g, were purchased from Beijing Vital River Laboratory Animal Technology Co., Ltd. After one week of adaptive feeding, golden hamsters were randomly divided into six groups. The model group and four test groups were orally administrated 10 mg/kg clindamycin, while the blank group was given the same volume of normal saline, and this day was recorded as day −1. On day 0, the model group and the test groups were challenged with Clostridium difficile spores (ATCC 630 strain), and each hamster received 5E4 spores. The blank group was not treated. Starting from the first day, four test groups were administered 100 mg/kg of compound I-3 according to the present invention, 10 mg/kg of vancomycin, 10 mg/kg of fidaxomicin, and 100 mg/kg of nitazoxanide twice a day, respectively; the blank group and the model group were given equal amounts of normal saline for a total of 20 days. During this period, the changes in weight, the diarrhea, and the mortality of animals were observed. Starting from the 21st day, the drugs were removed, but the observation was continued until the 45th day.

The mark [12] stands for this setting: ATCC700057, Brucella agar with supplements, anaerobic cultivation 48 h.
Where [13] appears, read: ATCC630, Brucella agar with supplements, anaerobic cultivation 48 h.
Setting [14] is: probiotic strain, Brucella agar, anaerobic cultivation 48 h.
Setting [15] is: CGMCC1, probiotic strain, Brucella agar, anaerobic cultivation 48 h.
Where [16] appears, read: ATCC19433, probiotic strain, Brucella agar, anaerobic cultivation 48 h.
Setting [17] is: ATCC4356, probiotic strain, Brucella agar, anaerobic cultivation 48 h.
Where [18] appears, read: ATCC11842, probiotic strain, Brucella agar, anaerobic cultivation 48 h.
[19] abbreviates: ATCC7469, probiotic strain, Brucella agar, anaerobic cultivation 48 h.
The mark [20] stands for this setting: ATCC19435, probiotic strain, Brucella agar, anaerobic cultivation 48 h.

As to `CN[C@H](CC(C)C)C(=O)N[C@H]1C(=O)N[C@@H](CC(N)=O)C(=O)N[C@H]2C(=O)N[C@H]3C(=O)N[C@H](C(=O)N[C@H](C(=O)O)c4cc(O)cc(O)c4-c4cc3ccc4O)[C@H](O)c3ccc(c(Cl)c3)Oc3cc2cc(c3O[C@@H]2O[C@H](CO)[C@@H](O)[C@H](O)[C@H]2O[C@H]2C[C@](C)(N)[C@H](O)[C@H](C)O2)Oc2ccc(cc2Cl)[C@H]1O` [vancomycin], the minimal inhibitory concentration (MIC) in experiment [1] was found to be 1 µg/mL (≈ 0.69 µM); in experiment [2] (ATCC700057, 48 h) it was 1 µg/mL (≈ 0.69 µM); in experiment [3] (ATCC630, 48 h), 2 µg/mL (≈ 1.38 µM); in experiment [4] (48 h) it was 8 µg/mL (≈ 5.52 µM); in experiment [5] (CGMCC1, 48 h), 4 µg/mL (≈ 2.76 µM); in experiment [6] (ATCC19433, 48 h), 4 µg/mL (≈ 2.76 µM). Moreover, the MIC in experiment [7] (ATCC4356, 48 h) was 4 µg/mL (≈ 2.76 µM); in experiment [8] (ATCC11842, 48 h) it was more than 256 µg/mL; in experiment [9] (ATCC7469, 48 h) it was 256 µg/mL (≈ 177 µM); in experiment [10] (ATCC19435, 48 h), 4 µg/mL (≈ 2.76 µM). Also, the “survival / mortality after drug withdrawal, observed until the 45th day” value (from here on “survival / mortality”) in [11] is reported as “all hamsters in the vancomycin group died”.
As for `CCCCCCCCCCCCCC(=O)Oc1ccccc1C(=O)Nc1ncc([N+](=O)[O-])s1` [Compound I-4], the minimal inhibitory concentration (MIC) is 0.25 µg/mL (≈ 0.526 µM) in [1], 0.125 µg/mL (≈ 0.263 µM) in [2] (setting [12]) and 0.0625 µg/mL (≈ 0.131 µM) in experiment [3] (setting [13]).
With `CCCC(=O)Oc1ccccc1C(=O)Nc1ncc([N+](=O)[O-])s1` [Compound I-1], the minimum inhibitory concentration (MIC) in [1] amounted to 0.25 µg/mL (≈ 0.746 µM); in experiment [2] (setting [12]), 0.25 µg/mL (≈ 0.746 µM); in experiment [3] (setting [13]) it was 0.0625 µg/mL (≈ 0.186 µM).
Consider `CCCCCCCC(=O)Oc1ccccc1C(=O)Nc1ncc([N+](=O)[O-])s1` [Compound I-2], for which the MIC came to 0.25 µg/mL (≈ 0.639 µM) in experiment [1], 0.25 µg/mL (≈ 0.639 µM) in experiment [2] (setting [12]) and 0.0625 µg/mL (≈ 0.16 µM) in experiment [3] (setting [13]).
Turning to `CCCCCCCCCCCC(=O)Oc1ccccc1C(=O)Nc1ncc([N+](=O)[O-])s1` [Compound I-3], the minimal inhibitory concentration (MIC) in [1] is 0.125 µg/mL (≈ 0.279 µM); in experiment [2] (setting [12]), 0.0625 µg/mL (≈ 0.14 µM); in experiment [3] (setting [13]), 0.0625 µg/mL (≈ 0.14 µM); in [4] (setting [14]), 128 µg/mL (≈ 286 µM); in [5] (setting [15]), 128 µg/mL (≈ 286 µM); in experiment [6] (setting [16]) it was 256 µg/mL (≈ 572 µM). For the same molecule, the minimum inhibitory concentration (MIC) in experiment [7] (setting [17]) is more than 256 µg/mL; in [8] (setting [18]) it was more than 256 µg/mL; in experiment [9] (setting [19]), more than 256 µg/mL; in experiment [10] (setting [20]) it was 256 µg/mL (≈ 572 µM). In addition, in experiment [11], the “time after drug withdrawal at which deaths occurred / began” value is reported as 7 days. Further, the “survival / mortality” value in [11] was “only one animal died”.
In the case of `CCc1c(Cl)c(O)c(Cl)c(O)c1C(=O)O[C@H]1[C@H](O)[C@H](OC)[C@H](OC/C2=C\C=C\C[C@H](O)/C(C)=C/[C@H](CC)[C@@H](O[C@@H]3OC(C)(C)[C@@H](OC(=O)C(C)C)[C@H](O)[C@@H]3O)/C(C)=C/C(C)=C/C[C@@H]([C@@H](C)O)OC2=O)O[C@@H]1C` [fidaxomicin], the MIC in experiment [4] (setting [14]) amounted to 1 µg/mL (≈ 0.945 µM); in experiment [5] (setting [15]), 4 µg/mL (≈ 3.78 µM); in [6] (setting [16]), 1 µg/mL (≈ 0.945 µM); in experiment [7] (setting [17]), 128 µg/mL (≈ 121 µM); in [8] (setting [18]), 128 µg/mL (≈ 121 µM); in experiment [9] (setting [19]), 16 µg/mL (≈ 15.1 µM). For the same molecule, in [10] (setting [20]), the MIC is 64 µg/mL (≈ 60.5 µM). In addition, the “time after drug withdrawal at which deaths occurred / began” value in [11] stood at 15 days. The “survival / mortality” value in experiment [11] is listed as “all of them died”.
Regarding `CC(=O)Oc1ccccc1C(=O)Nc1ncc([N+](=O)[O-])s1` [nitazoxanide, Nitazoxanide], the minimal inhibitory concentration (MIC) in experiment [1] was 0.5 µg/mL (≈ 1.63 µM); in [2] (setting [12]), 0.125 µg/mL (≈ 0.407 µM); in [3] (setting [13]) it was 0.125 µg/mL (≈ 0.407 µM); in experiment [4] (setting [14]), 1 µg/mL (≈ 3.25 µM); in experiment [5] (setting [15]) it was 32 µg/mL (≈ 104 µM); in experiment [6] (setting [16]), 64 µg/mL (≈ 208 µM). Besides, the MIC in [7] (setting [17]) turned out to be 64 µg/mL (≈ 208 µM); in experiment [8] (setting [18]), 64 µg/mL (≈ 208 µM); in experiment [9] (setting [19]) it was 256 µg/mL (≈ 833 µM); in [10] (setting [20]), 8 µg/mL (≈ 26 µM). For the same molecule, the “survival / mortality” value in [11] is “four hamsters in the nitroxide group survived”.
